According to article PMC5352051, “Identification of a novel Polo-like kinase 1 inhibitor that specifically blocks the functions of Polo-Box domain” (Oncotarget, 2016):

Tests used:
HCT-116 = experiment: MTT assay; assay type: cell-based; settings: Homo sapiens; HCT-116, Colon, tumor; read-out: IC50 proliferation
Method: (§1) The MTT assay was performed as described. In brief, cells were seeded at 3000~5000 cells/well into 96-well plates (200 μL/well) and incubated overnight. We replaced the growth medium with fresh medium containing T521 at several concentrations (two-fold dilutions and the initial concentration is 50 μM, 10 reactions total). After further incubation for 48 hrs in the presence of T521, the medium was removed from all wells and the cells were incubated with 200 μL of fresh medium for additional 24 hrs. We then added 22 μL of MTT solution (Amresco; 5 mg/mL in PBS) to each well and incubated the plate for 4 hrs at 37°C. After removing the medium, we dissolved the purple MTT-formazan crystals by adding 150 μL of DMSO to each well and recorded absorbance at 560 nm by Envision Multilabel Reader (PerkinElmer). The inhibition curve was plotted to determine the IC50 of various cell lines using GraphPad Prism5.0.

MCF-7 = experiment: MTT assay; assay type: cell-based; settings: Homo sapiens, MCF7; MCF-7, Breast, tumor; read-out: IC50 proliferation
Method: as §1

U-2OS = experiment: MTT assay; assay type: cell-based; settings: Homo sapiens, U2OS, Bone, tumor, read-out: IC50 proliferation
Method: as §1

MRC-5 = experiment: MTT assay; assay type: cell-based; settings: Homo sapiens, MRC5; MRC-5, Lung, normal; read-out: IC50 proliferation
Method: as §1

Plk1 PBD = target: T1, Plk1 PBD (Homo sapiens, UniProt P53350); experiment: Fluorescence polarization assay, Plk1 PBD / FITC-Poloboxtide; assay type: binding
T1 construct: (326-603 aa), Plk2 (355-685 aa), and Plk3 (335-646 aa); 6xHis (N); 6xHis (C); made in house; host or cells: E. coli Rosetta BL21(DE3)
Method: (§2) FP assay was performed as follow. […] We calculated the percentage of inhibition for each sample as follows: Inhibition(%)=Negative−Sample/Negative−Positive×100%
(§3) We plotted the inhibition values and determined IC50 using GraphPad Prism5.0. Together with the FITC-labeled peptides used for Plk1 PBD as mentioned above, the following peptides were used for specificity assays, FITC-GPMQTSpTPKNG-OH (Plk2 PBD), FITC-GPLATSpTPKNG-OH (Plk3 PBD).

[1] = test system: Plk1, Cyclin B1 and pHH-3 in HeLa cells; experiment: Western blot of mitotic markers; assay type: cell-based, human; settings: synchronized HeLa, indicated concentrations, 16 hrs
Method: HeLa cells were collected after trypsinization and lysed with RIPA buffer. Equal amount of proteins (30 μg/lane) were loaded, separated by 15% SDS-PAGE. After blocking with blocking buffer for 2 hrs at RT, the membrane was incubated with the following primary antibodies diluted in blocking buffer overnight at 4°C: anti-hPlk1 mouse monoclonal antibody (Cat# P5998; Sigma; 1:3000), anti-CyclinB1 rabbit polyclonal antibody (Cat# SAB4503501; Sigma; 1:2000), anti-pHH3 rabbit monoclonal antibody (Cat# 04-817; Millipore; 1:2000), anti-GAPDH rabbit polyclonal antibody (Cat# P30008; Abmart; 1:2000). The membrane was washed 3 times and then incubated with Horseradish Peroxidase-conjugated secondary antibodies for 1 hr at RT and visualized with ECL system (Millipore). The level of GAPDH was used as the loading control.

HeLa cells = experiment: Immunofluorescence assay, mitotic phase distribution; assay type: cell-based, human; settings: 10 hrs; for percentage of prometaphase cells: synchronized HeLa, control 23.3%
Method: To determine mitotic phase distribution, about 50 mitotic cells were analyzed. Cells were classified according to the structure and alignment of the chromosomes as well as the number and location of the centrosomes. All experiments were performed in triplicate. For confocal microscopy, HeLa cells grown on coverslips were fixed and permeabilized in methanol for 15 min at −20°C and then incubated with blocking buffer (PBS with 0.1% Triton X-100 and 5% BSA) for 2 hrs at RT. And then the coverslips were followed by washing and incubation with primary antibodies and fluorophore-conjugated secondary antibodies for 1 hr at RT, respectively. All antibodies were diluted in blocking buffer and the coverslips were washed three times with PBST, and then all coverslips were treated with 4',6-diamidino-2-phenylindole (DAPI) (Sigma; 2 μg/mL) for 2 min at RT, washed again and mounted onto slides using ProLong Diamond Antifade Mountant (Cat# 36961; Molecular Probes). Immunofluorescence images were taken with Olympus FV1000 Confocal Laser Microscope (Olympus, Japan) at 600×magnification. All images were processed using FV10-ASW 3.0 Viewer Software System (Olympus, Japan). The following antibodies were used: anti-α-Tubulin mouse monoclonal antibody (Cat# T9026; Sigma; 1:800), anti-γ-Tubulin rabbit polyclonal antibody (Cat# T3559; Sigma; 1:1500), Alex Fluor 488-conjugated goat anti-mouse IgG (Cat# A-11011; Molecular Probes; 1:1000) and Alex Fluor 594-conjugated donkey anti-rabbit IgG (Cat# A-21207; Molecular Probes; 1:1000).

[2] = test system: PARP cleavage in HeLa cells; experiment: Western blot of PARP cleavage; assay type: cell-based, human; settings: 24 hrs
Method: We also performed a western blot assay to examine PARP cleavage, and the protocol was similar as describe above. Equal amount of proteins (30 μg/lane) were loaded, separated by 12% SDS-PAGE. Anti-PARP rabbit polyclonal antibody (Cat# 9542P; Cell Signaling Technology; 1:1500) was used as primary antibody. GAPDH was used as the loading control.

Plk3 PBD = target: T2, Plk3 PBD (Homo sapiens, UniProt Q9H4B4); experiment: Fluorescence polarization assay, Plk3 PBD / FITC-labeled phosphopeptide; assay type: binding; settings: Plk3 PBD
T2 construct: (326-603 aa), Plk2 (355-685 aa), and Plk3 (335-646 aa); GST (N); made in house; host or cells: E. coli Rosetta BL21(DE3)
T2 sequence (Q9H4B4 335-646): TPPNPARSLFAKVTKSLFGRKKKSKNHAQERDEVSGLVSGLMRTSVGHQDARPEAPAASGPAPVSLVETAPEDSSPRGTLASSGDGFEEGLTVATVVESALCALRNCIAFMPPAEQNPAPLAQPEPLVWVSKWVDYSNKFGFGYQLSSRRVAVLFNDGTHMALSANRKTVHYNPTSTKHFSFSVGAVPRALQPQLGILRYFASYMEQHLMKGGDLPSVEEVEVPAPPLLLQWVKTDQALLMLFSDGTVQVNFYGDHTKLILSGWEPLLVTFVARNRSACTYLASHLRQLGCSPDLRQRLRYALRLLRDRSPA
Method: as §2, §3

[3] = test system: normal cell lines, MRC5, HEK-293 and L02 cells; experiment: MTT assay, panel of normal cell lines; assay type: cell-based; settings: Homo sapiens; three exponentially growing normal cell lines; read-out: IC50 proliferation, range over cell lines
Method: as §1

T1 sequence (P53350 326-603): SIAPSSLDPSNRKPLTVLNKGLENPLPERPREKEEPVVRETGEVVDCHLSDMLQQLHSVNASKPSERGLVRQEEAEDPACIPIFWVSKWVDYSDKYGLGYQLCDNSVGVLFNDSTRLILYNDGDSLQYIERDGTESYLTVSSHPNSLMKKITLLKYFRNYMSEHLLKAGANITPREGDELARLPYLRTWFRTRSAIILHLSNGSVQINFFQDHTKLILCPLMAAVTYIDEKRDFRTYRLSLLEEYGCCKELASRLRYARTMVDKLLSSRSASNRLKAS

Which IC50 (HCT-116) does the source give for `CCS(=O)(=O)c1oc(-c2ccc(F)cc2)nc1S(=O)(=O)c1ccccc1` [T521, 5-(ethylsulfonyl)-2-(4-fluorophenyl)-4-(phenylsulfonyl) oxazole] here?
The IC50 was 3550 nM.

And the IC50 (MCF-7)?
The IC50 was 1580 nM.

And the IC50 (U-2OS)?
Its IC50 is 1060 nM.

And the IC50 (MRC-5)?
The IC50 was 2640 nM.

And the “temperature dependence of inhibition of Plk1 PBD / FITC-Poloboxtide interaction” value (Plk1 PBD; 1 hr incubation at indicated temperatures)?
Its value is “more efficient at higher temperatures”.

What about the IC50 (Plk1 PBD; Plk1 PBD, FP assay, 1 hr preincubation at RT, read-out: Apparent IC50) of the same compound?
The IC50 was 1220 ± 130 nM.

What about the “time dependence of inhibition of Plk1 PBD / FITC-Poloboxtide interaction” value (Plk1 PBD; incubation for indicated times at RT) of the same compound?
The value was “inhibition increased over time”.

What about the “mitotic markers (Plk1, Cyclin B1, pHH-3) protein levels” value [1] of the same compound?
Its value is “accumulation of these mitotic markers”.

What about the “percentage of prometaphase cells” value (HeLa cells; 5 μM) of the same compound?
The value was 32.7%.

And the “percentage of prometaphase cells” value (HeLa cells; 10 μM)?
Its value is 56.0%.

And the “percentage of prometaphase cells” value (HeLa cells; 15 μM)?
Its value is 76.2%.

And the “metaphase cells with chromosome alignment defects” value (HeLa cells; synchronized HeLa, 5, 10, 15 μM)?
Its value is “remarkable increase”.

What about the PARP cleavage [2] of the same compound?
Its PARP cleavage is “increase of PARP cleavage”.

What about the IC50 (Plk3 PBD; FP assay, 1 hr preincubation at RT, read-out: Apparent IC50) of the same compound?
Its IC50 is over 500000 nM.

What about the “inhibition of binding of PBD to FITC-labeled phosphopeptide” value (Plk3 PBD; concentration as high as 500 μM) of the same compound?
Its value is “little inhibition”.

And the IC50 [3]?
Its IC50 is 3000 to 10000 nM.
